ChEMBL document CHEMBL1201861, “Genomics of Drug Sensitity in Cancer screening data, Wellcome Trust Sanger Institute”

Experiments:
IST-SL2 = assay: cells; format: functional, cell-based, Homo sapiens; conditions: Homo sapiens, IST-SL2;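 note: growth inhibition of human IST-SL2 cells, read out by a cell viability assay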
Description: SANGER: Inhibition of human IST-SL2 cell growth in a cell viability assay.

NCI-H1694 = assay: cells; format: functional, cell-based, Homo sapiens; conditions: Homo sapiens, NCI-H1694;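 note: cell viability assay measuring inhibition of growth in human NCI-H1694 cells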
Description: SANGER: Inhibition of human NCI-H1694 cell growth in a cell viability assay.

MHH-CALL-2 = assay: cells; format: functional, cell-based, Homo sapiens; conditions: Homo sapiens, MHH-CALL-2;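 note: growth inhibition of the cell line, read out in a cell viability assay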
Description: SANGER: Inhibition of human MHH-CALL-2 cell growth in a cell viability assay.

SIMA = assay: cells; format: functional, cell-based, Homo sapiens; conditions: Homo sapiens, SIMA;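 note: growth inhibition of SIMA cells, measured with a cell viability readout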
Description: SANGER: Inhibition of human SIMA cell growth in a cell viability assay.

CHP-126 = assay: cells; format: functional, cell-based, Homo sapiens; conditions: Homo sapiens, CHP-126
Description: SANGER: Inhibition of human CHP-126 cell growth in a cell viability assay.

NCI-H510A = assay: cells; format: functional, cell-based, Homo sapiens; conditions: Homo sapiens, NCI-H510A;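 note: growth inhibition of NCI-H510A cells, read out with a cell viability assay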
Description: SANGER: Inhibition of human NCI-H510A cell growth in a cell viability assay.

EHEB = assay: cells; format: functional, cell-based; conditions: Homo sapiens;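 note: growth inhibition of human EHEB cells, read out with a cell viability assay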
Description: SANGER: Inhibition of human EHEB cell growth in a cell viability assay.

SR = assay: cells; format: functional, cell-based, Homo sapiens; conditions: Homo sapiens, SR
Description: SANGER: Inhibition of human SR cell growth in a cell viability assay.

NCCIT = assay: SANGER: Inhibition of human NCCIT cell growth in a cell viability assay.; format: functional, cell-based; conditions: Homo sapiens, NCCIT
D-336MG = assay: cells; format: functional, cell-based, Homo sapiens; conditions: Homo sapiens, D-336MG
Description: SANGER: Inhibition of human D-336MG cell growth in a cell viability assay.

MRK-nu-1 = assay: cells; format: functional, cell-based, Homo sapiens; conditions: Homo sapiens, MRK-nu-1;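 note: cell viability assay measuring growth suppression of human MRK-nu-1 cells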
Description: SANGER: Inhibition of human MRK-nu-1 cell growth in a cell viability assay.

MC-CAR = assay: cells; format: functional, cell-based, Homo sapiens; conditions: Homo sapiens, MC-CAR;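 note: growth inhibition of the human MC-CAR cell line, read out by a cell viability assay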
Description: SANGER: Inhibition of human MC-CAR cell growth in a cell viability assay.

COR-L279 = assay: SANGER: Inhibition of human COR-L279 cell growth in a cell viability assay.; format: functional, cell-based; conditions: Homo sapiens, COR-L279
NB1 = assay: cells; format: functional, cell-based, Homo sapiens; conditions: Homo sapiens, NB1
Description: SANGER: Inhibition of human NB1 cell growth in a cell viability assay.

BL-70 = assay: SANGER: Inhibition of human BL-70 cell growth in a cell viability assay.; format: functional, cell-based; conditions: Homo sapiens, BL-70
U-698-M = assay: cells; format: functional, cell-based, Homo sapiens; conditions: Homo sapiens, U-698-M
Description: SANGER: Inhibition of human U-698-M cell growth in a cell viability assay.

RPMI-6666 = assay: cells; format: functional, cell-based, Homo sapiens; conditions: Homo sapiens, RPMI-6666
Description: SANGER: Inhibition of human RPMI-6666 cell growth in a cell viability assay.

NB17 = assay: cells; format: functional, cell-based, Homo sapiens; conditions: Homo sapiens, NB17;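 note: growth inhibition of NB17 cells, read out with a cell viability assay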
Description: SANGER: Inhibition of human NB17 cell growth in a cell viability assay.

NCI-H719 = assay: cells; format: functional, cell-based, Homo sapiens; conditions: Homo sapiens, NCI-H719;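 note: growth inhibition of the cultured cell line, read out with a viability assay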
Description: SANGER: Inhibition of human NCI-H719 cell growth in a cell viability assay.

CP66-MEL = assay: cells; format: functional, cell-based; conditions: Homo sapiens;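 note: growth inhibition of CP66-MEL cells determined in a cell viability assay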
Description: SANGER: Inhibition of human CP66-MEL cell growth in a cell viability assay.

GP5d = assay: cells; format: functional, cell-based; conditions: Homo sapiens;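 note: growth inhibition of human GP5d cells, read out with a cell viability assay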
Description: SANGER: Inhibition of human GP5d cell growth in a cell viability assay.

NCI-H2347 = assay: cells; format: functional, cell-based; conditions: Homo sapiens;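 note: growth inhibition of the cell line, read out with a cell viability assay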
Description: SANGER: Inhibition of human NCI-H2347 cell growth in a cell viability assay.

SK-MES-1 = assay: cells; format: functional, cell-based; conditions: Homo sapiens;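 note: growth inhibition of human SK-MES-1 cells, read out with a cell viability assay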
Description: SANGER: Inhibition of human SK-MES-1 cell growth in a cell viability assay.

CHL-1 = assay: cells; format: functional, cell-based; conditions: Homo sapiens;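 note: cell growth inhibition, read out with a cell viability assay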
Description: SANGER: Inhibition of human CHL-1 cell growth in a cell viability assay.

SW1573 = assay: cells; format: functional, cell-based; conditions: Homo sapiens;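 note: growth inhibition of SW1573 cells, read out with a cell viability assay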
Description: SANGER: Inhibition of human SW1573 cell growth in a cell viability assay.

CAL-39 = assay: cells; format: functional, cell-based; conditions: Homo sapiens;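 note: cell viability assay measuring growth inhibition of CAL-39 cells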
Description: SANGER: Inhibition of human CAL-39 cell growth in a cell viability assay.

OE19 = assay: cells; format: functional, cell-based; conditions: Homo sapiens;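 note: growth inhibition of OE19 cells, measured through a cell viability read-out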
Description: SANGER: Inhibition of human OE19 cell growth in a cell viability assay.

NCI-H520 = assay: cells; format: functional, cell-based; conditions: Homo sapiens;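 note: growth inhibition of NCI-H520 cells, measured by a cell viability assay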
Description: SANGER: Inhibition of human NCI-H520 cell growth in a cell viability assay.

SNU-449 = assay: cells; format: functional, cell-based; conditions: Homo sapiens
Description: SANGER: Inhibition of human SNU-449 cell growth in a cell viability assay.

PANC-03-27 = assay: cells; format: functional, cell-based; conditions: Homo sapiens
Description: SANGER: Inhibition of human PANC-03-27 cell growth in a cell viability assay.

CAL-51 = assay: cells; format: functional, cell-based; conditions: Homo sapiens;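 note: human CAL-51 cell line, growth inhibition read out via a cell viability assay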
Description: SANGER: Inhibition of human CAL-51 cell growth in a cell viability assay.

A2058 = assay: cells; format: functional, cell-based; conditions: Homo sapiens;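 note: reduction of A2058 cell growth, read out with a viability assay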
Description: SANGER: Inhibition of human A2058 cell growth in a cell viability assay.

IGR-1 = assay: cells; format: functional, cell-based; conditions: Homo sapiens;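 note: growth inhibition of human IGR-1 cells, read out with a cell viability assay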
Description: SANGER: Inhibition of human IGR-1 cell growth in a cell viability assay.

SCC-4 = assay: cells; format: functional, cell-based; conditions: Homo sapiens;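 note: growth inhibition of human SCC-4 cells, read out as cell viability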
Description: SANGER: Inhibition of human SCC-4 cell growth in a cell viability assay.

MDA-MB-157 = assay: cells; format: functional, cell-based; conditions: Homo sapiens
Description: SANGER: Inhibition of human MDA-MB-157 cell growth in a cell viability assay.

NCI-H441 = assay: cells; format: functional, cell-based; conditions: Homo sapiens;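 note: growth inhibition of NCI-H441 cells, read out with a cell viability assay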
Description: SANGER: Inhibition of human NCI-H441 cell growth in a cell viability assay.

BHT-101 = assay: cells; format: functional, cell-based; conditions: Homo sapiens
Description: SANGER: Inhibition of human BHT-101 cell growth in a cell viability assay.

NCI-H630 = assay: cells; format: functional, cell-based; conditions: Homo sapiens;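 note: growth inhibition of NCI-H630 cells, read out with a cell viability assay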
Description: SANGER: Inhibition of human NCI-H630 cell growth in a cell viability assay.

NCI-H596 = assay: cells; format: functional, cell-based; conditions: Homo sapiens;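 note: growth inhibition of NCI-H596 cells, read out with a cell viability assay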
Description: SANGER: Inhibition of human NCI-H596 cell growth in a cell viability assay.

SW1710 = assay: cells; format: functional, cell-based; conditions: Homo sapiens;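 note: growth inhibition of SW1710 cells, determined with a cell viability assay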
Description: SANGER: Inhibition of human SW1710 cell growth in a cell viability assay.

PA-1 = assay: cells; format: functional, cell-based; conditions: Homo sapiens;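 note: IC50 for suppression of PA-1 cell proliferation, determined with a cell viability read-out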
Description: SANGER: Inhibition of human PA-1 cell growth in a cell viability assay.

GMS-10 = assay: cells; format: functional, cell-based; conditions: Homo sapiens;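 note: growth inhibition of GMS-10 cells, read out as cell viability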
Description: SANGER: Inhibition of human GMS-10 cell growth in a cell viability assay.

DU-145 = assay: cells; format: functional, cell-based; conditions: Homo sapiens
Description: SANGER: Inhibition of human DU-145 cell growth in a cell viability assay.

BEN = assay: cells; format: functional, cell-based; conditions: Homo sapiens;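 note: growth inhibition of the BEN cell line, read out with a cell viability assay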
Description: SANGER: Inhibition of human BEN cell growth in a cell viability assay.

MFE-280 = assay: cells; format: functional, cell-based; conditions: Homo sapiens;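 note: growth inhibition of MFE-280 cells, determined with a cell viability readout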
Description: SANGER: Inhibition of human MFE-280 cell growth in a cell viability assay.

RT-112 = assay: cells; format: functional, cell-based; conditions: Homo sapiens
Description: SANGER: Inhibition of human RT-112 cell growth in a cell viability assay.

COLO-679 = assay: cells; format: functional, cell-based; conditions: Homo sapiens
Description: SANGER: Inhibition of human COLO-679 cell growth in a cell viability assay.

COLO-741 = assay: cells; format: functional, cell-based; conditions: Homo sapiens
Description: SANGER: Inhibition of human COLO-741 cell growth in a cell viability assay.

HuO9 = assay: cells; format: functional, cell-based; conditions: Homo sapiens;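 note: growth inhibition of HuO9 cells, read out with a cell viability assay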
Description: SANGER: Inhibition of human HuO9 cell growth in a cell viability assay.

C32 = assay: cells; format: functional, cell-based; conditions: Homo sapiens;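 note: cell viability assay, with IC50 reflecting inhibition of C32 cell growth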
Description: SANGER: Inhibition of human C32 cell growth in a cell viability assay.

SK-OV-3 = assay: cells; format: functional, cell-based; conditions: Homo sapiens;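 note: growth inhibition of SK-OV-3 human cells, read out with a cell viability assay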
Description: SANGER: Inhibition of human SK-OV-3 cell growth in a cell viability assay.

OVCAR-3 = assay: cells; format: functional, cell-based; conditions: Homo sapiens;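 note: growth inhibition of human OVCAR-3 cells, determined by a cell viability assay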
Description: SANGER: Inhibition of human OVCAR-3 cell growth in a cell viability assay.

RCM-1 = assay: cells; format: functional, cell-based; conditions: Homo sapiens;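 note: growth inhibition of the RCM-1 line, determined with a cell viability readout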
Description: SANGER: Inhibition of human RCM-1 cell growth in a cell viability assay.

YKG-1 = assay: cells; format: functional, cell-based; conditions: Homo sapiens;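 note: cell growth inhibition, read out with a viability assay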
Description: SANGER: Inhibition of human YKG-1 cell growth in a cell viability assay.

UO-31 = assay: cells; format: functional, cell-based; conditions: Homo sapiens
Description: SANGER: Inhibition of human U031 cell growth in a cell viability assay.

KYSE-410 = assay: cells; format: functional, cell-based; conditions: Homo sapiens;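 note: growth inhibition of KYSE-410 cells, measured through a cell viability readout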
Description: SANGER: Inhibition of human KYSE-410 cell growth in a cell viability assay.

Measured: IC50

C=CC(=O)N1CCCC(Nc2nc(Nc3ccc(N(C)C(=O)CC)cc3)nc3[nH]cnc23)C1 (stereo not drawn)
> 10.2 µM: IST-SL2 | NCI-H1694 | MHH-CALL-2 | SIMA | CHP-126 | NCI-H510A | EHEB | SR | NCCIT | MRK-nu-1 | MC-CAR | COR-L279 | NB1 | BL-70 | U-698-M | RPMI-6666 | NB17 | NCI-H719 | CP66-MEL
8 µM: D-336MG

COc1ccc(N(C(=O)Oc2c(C)cccc2C)c2ccnc(Nc3ccc(N4CCN(C)CC4)cc3)n2)c(OC)c1
4.72 µM: MRK-nu-1
0.0468 µM: D-336MG
2.63 µM: NB17
1.47 µM: IST-SL2
> 5.12 µM: NCI-H1694 | MHH-CALL-2 | SIMA | CHP-126 | NCI-H510A | EHEB | SR | NCCIT | MC-CAR | COR-L279 | NB1 | U-698-M | RPMI-6666 | NCI-H719 | CP66-MEL
< 0.02 µM: BL-70

O=C1NC(=O)c2c1c(-c1ccccc1Cl)cc1[nH]c3ccc(O)cc3c21
1.72 µM: SK-MES-1
1.93 µM: NCI-H630
1.56 µM: KYSE-410
1.05 µM: CHL-1
1.21 µM: PANC-03-27
1.53 µM: C32
0.161 µM: DU-145
1.96 µM: HuO9
not listed: IST-SL2 | NCI-H1694 | MHH-CALL-2 | SIMA | CHP-126 | NCI-H510A | EHEB | SR | NCCIT | MRK-nu-1 | MC-CAR | COR-L279 | NB1 | BL-70 | U-698-M | RPMI-6666 | NCI-H719 | CP66-MEL
> 2 µM: all other assays above

Cc1cc(N2CCOCC2)cc2[nH]c(-c3c(NC[C@@H](O)c4cccc(Cl)c4)cc[nH]c3=O)nc12
2.05 µM: SR
4.8 µM: BL-70
> 5.12 µM: IST-SL2 | NCI-H1694 | MHH-CALL-2 | SIMA | CHP-126 | NCI-H510A | EHEB | MRK-nu-1 | MC-CAR | COR-L279 | NB1 | U-698-M | NB17 | NCI-H719 | CP66-MEL
0.872 µM: D-336MG
3.83 µM: NCCIT
3.45 µM: RPMI-6666
